Data on one compound can be found in US20180228861A1, “COMPOSITION FOR TREATING DIABETES AND DYSLIPIDEMIA OBTAINED FROM THE EXTRACT OF COSTUS PICTUS D.DON PLANT AND A METHOD OF PREPARING THE SAME” (ARJUNA NATURAL EXTRACTS, LTD., priority 2012, published 2018).

Format in all cases: in vivo
Assay [1] deals with high fat diet-induced insulin resistance model with C57/BL 6J mice. In words: Body weight in high fat diet-induced insulin resistance model. The source says: Evaluation of effect of different fractions of Costus pictus D. Don on high fat diet-induced insulin resistance model with C57/BL 6J mice.
(§1) The study was designed to evaluate the effect of different fractions of Costus pictus D. Don on high fat-induced resistance Type 2diabetic model (HFD). Six week-old C57B1/6J mice were allowed free access to food and water. They were housed under identical standard conditions. The animals were kept for acclimatization for a period of 7 days. After 7 days, the mice were randomly divided into six groups of six mice each. The normal control group was treated with normal regular diet and the rest of the animals were fed with high fat diet for 6 weeks. After 6 weeks, methanolic extract of fresh leaves of Costus pictus D. Don, and the extract had low oxalic acid and/or oxalates content, silica purified ethyl acetate extract of methanolic extract of fresh leaves of Costus pictus D. Don where the extract had low oxalic acid and/or oxalates content and ethyl acetate extract of 90% methanolic extract of fresh leaves of Costus pictus D. Don where the extract had low oxalic acid and/or oxalates content were administered at 40 mg/kg p.o. for 6 consecutive weeks. The experimental design was as follows:
Group 3—HFD for 6 weeks and Standard drug treated group for 6 weeks—metformin.
Group 4—HFD for 6 weeks and methanolic extract of fresh leaves of Costus pictus D. Don where the extract had low oxalic acid and/or oxalates content (Sample 2 prepared as per example 1) at 40 mg/kg orally for 6 weeks.
Group 5—HFD for 6 weeks and silica purified ethyl acetate extract of 90% methanolic extract of fresh leaves of Costus pictus D. Don where the extract had low oxalic acid and/or oxalates content (Sample 5 prepared as per example 4) at 40 mg/kg orally for 6 weeks.
Group 6—HFD for 6 weeks and ethyl acetate extract of 90% methanol extract of fresh leaves of Costus pictus D. Don where the extract had low oxalic acid and/or oxalates content (Sample 4 prepared as per example 3) at 40 mg/kg orally for 6 weeks.
(§2) Body weights were determined biweekly. At the end of experimental period, blood samples were collected to determine plasma glucose, insulin, leptin, glycosylated hemoglobin, triglycerides, total cholesterol, LDL, HDL and VLDL.

For assay [2] the test system is unchanged. Briefly: Blood glucose in high fat diet-induced insulin resistance model. Conditions: HFD mice, end of experimental period; extracts 40 mg/kg orally for 6 weeks, metformin as standard drug. Here is the method:
as §1, §2

Assay [3] has the same test system. In words: Lipid profile in high fat diet-induced insulin resistance model. Conditions: high fat diet induced diabetes mellitus, extracts 40 mg/kg orally for 6 weeks, metformin as standard drug. Here is the method: The study was designed to evaluate the effect of different fractions of Costus pictus D. Don on high fat-induced resistance Type 2diabetic model (HFD). Six week-old C57B1/6J mice were allowed free access to food and water. They were housed under identical standard conditions. The animals were kept for acclimatization for a period of 7 days. After 7 days, the mice were randomly divided into six groups of six mice each. The normal control group was treated with normal regular diet and the rest of the animals were fed with high fat diet for 6 weeks. […] The experimental design was as follows:
as §2

The test system is the same in assay [4]. Briefly: Serum insulin and glycosylated hemoglobin in high fat diet-induced insulin resistance model. Conditions: high fat diet induced diabetes mellitus, extracts 40 mg/kg orally for 6 weeks, metformin as standard drug. Here is the method:
as §1, §2

In the case of `CN(C)C(=N)N=C(N)N` [metformin], the “Body weight, week 0” value in assay [1] (C57/BL 6J mice on high fat diet, week 0, before treatment) is listed as 15 grams. Besides, in assay [1] (C57/BL 6J mice on high fat diet, week 2, before treatment), the “Body weight, week 2” value was 30 grams. Besides, the “Body weight, week 4” value in assay [1] (C57/BL 6J mice on high fat diet, week 4, before treatment) was found to be 46 grams. The “Body weight, week 6” value in assay [1] (C57/BL 6J mice on high fat diet, week 6, start of treatment) is reported as 61 grams. Besides, the “Body weight, week 8” value in assay [1] (HFD mice, week 8, extracts 40 mg/kg orally from week 6, metformin as standard drug) amounted to 48 grams. Also, the “Body weight, week 10” value in assay [1] (HFD mice, week 10, extracts 40 mg/kg orally from week 6, metformin as standard drug) came out at 35 grams. For the same compound, in assay [1] (HFD mice, week 12, extracts 40 mg/kg orally from week 6, metformin as standard drug), the “Body weight, week 12” value is 35 grams. In assay [2], this compound returned a Blood glucose of 100 mg/dL. In addition, in assay [3], the HDL is 99 mg/dL, the LDL was 17 mg/dL and the VLDL turned out to be 6 mg/dL. In assay [3] (total cholesterol), this compound showed a TC of 122 mg/dL. The compound also yielded a TG in assay [3] (triglycerides) of 30 mg/dL. The “Glycosylated Hb” value in assay [4] is on record as 0.5 % of total Hb. In assay [4] (serum), this compound came in with an Insulin of 1.7 ng/mL.
